Test system: UT7/EPO Cell line
Experiment: Cell Proliferation Assay (UT7/EPO, ViaLight Plus)
Assay type: cell-based, human
Details: proliferative effect; compounds at 10 uM; UT7/EPO cells starved of EPO overnight; 72 hours at 37° C.; ViaLight Plus kit
Experimental: The primary testing for the examplfied compounds was performed in UT7/EPO Cell line. UT7/EPO is human leukemia cell line, obtained from Dr. Norio Komatsu (Blood, Vol 82 (2), pp 456-464, 1993). These cells express endogenous EPO receptor and are dependant upon EPO for growth and proliferation. Briefly, the cells were starved of EPO overnight and plated in 96 or 384 well plates. The compounds were added to the cells at 10 uM concentration. The plates were then incubated at 37° C. for 72 hours. The proliferative effect of the compounds was measured by a commercially available kit from Lonza (ViaLight Plus).

SMILES	Activity (%)
CC(=O)Nc1ccc2[nH]c(-c3ccc(C(=O)Nc4ccc(N5CCOCC5)cc4)cc3)nc2c1 [Compound 454, 4-(5-Acetamino-1H-benzimidazol-2-yl)-N-(4-morpholinophenyl)benzamide]	16%
O=C(Nc1ccc(N2CCOCC2)cc1)c1ccc(-c2nc3ccccc3[nH]2)cc1 [Compound 458, 4-(1H-Benzimidazol-2-yl)-N-(4-morpholinophenyl)benzamide]	10%
O=C(CNC(=O)c1ccc(-c2ccc(C(=O)NCC(=O)Nc3ccc(N4CCOCC4)cc3)cc2)cc1)Nc1ccc(N2CCOCC2)cc1 [Compound 465, N,N′-bis(2-(4-Morpholinophenylamino)-2-oxoethyl)biphenyl-4,4′-dicarboxamide]	18%
COc1ccc(-c2cc(NC(=O)c3ccc(C(=O)Nc4cc(-c5ccc(OC)cc5)[nH]n4)cc3)n[nH]2)cc1 [Compound 473, N,N′-bis(5-(4-Methoxyphenyl)-1H-pyrazol-3-yl)terephthalamide]	11%
O=C(Nc1ccc2[nH]c(-c3ccc(-c4ccccn4)cc3)nc2c1)c1ccccc1 [Compound 479, N-(2-(4-(Pyridin-2-yl)phenyl)-1H-benzimidazol-5-yl)benzamide]	15%
CCNc1ccc(C(=O)c2ccc(NC(=O)c3ccc(N4CCOCC4)cc3)cc2)cc1 [Compound 484, N-(4-(4-Ethylaminobenzoyl)phenyl)-4-morpholinobenzamide]	16%
O=C(Nc1ccc(C(=O)c2ccc(NC(=O)c3ccsc3)cc2)cc1)c1ccc(N2CCOCC2)cc1 [Compound 490, N-(4-(4-(3-Thienylcarboxamido)benzoyl)phenyl)-4-morpholinobenzamide]	15%
Cc1cc(C(=O)Nc2ccc(C(=O)c3ccc(NC(=O)c4ccc(N5CCOCC5)cc4)cc3)cc2)[nH]n1 [Compound 500, 3-Methyl-N-(4-(4-(4-morpholinobenzamido)benzoyl)phenyl)-1H-pyrazole-5-carboxamide]	19%
O=C(Nc1ccc2c(cnn2-c2ccc(NC(=O)c3ccc4cc[nH]c4c3)cc2)c1)c1ccc(N2CCC(O)CC2)cc1 [Compound 510, N-(4-(5-(4-(4-Hydroxypiperidin-1-yl)benzamido)-1H-indazol-1-yl)phenyl)-1H-indole-6-carboxamide]	17%
O=C(Nc1ccc2c(cnn2-c2ccc(NCC3CC3)cc2)c1)c1ccc(N2CCOCC2)cc1 [Compound 530]	11%
O=C(Nc1ccc2nn(-c3ccc([N+](=O)[O-])cc3)cc2c1)c1ccc(N2CCOCC2)cc1 [Compound 540, 4-Morpholino-N-(2-(4-nitrophenyl)-2H-indazol-5-yl)benzamide]	17%
CN1CCN(C(=O)Nc2ccc(-n3ncc4cc(NC(=O)c5ccc(N6CCOCC6)cc5)ccc43)cc2)CC1 [Compound 550, 4-Methyl-N-(4-(5-(4-morpholinobenzamido)-1H-indazol-1-yl)phenyl)piperazine-1-carboxamide]	9%
O=C(Nc1ccc2c(c1)ncn2-c1ccc(NC(=O)C2CC2)cc1)c1ccc(N2CCC(O)CC2)cc1 [Compound 560, N-(4-(5-(4-(4-Hydroxypiperidin-1-yl)benzamido)-1H-benzimidazol-1-yl)phenyl)cyclopropylcarboxamide]	14%
O=C(Nc1ccc(Nc2ccc(NC(=O)c3cccc(O)c3)cc2)cc1)c1cccc(O)c1 [Compound 570, N,N′-(4,4′-Azanediylbis(4,1-phenylene))bis(3-hydroxybenzamide)]	11%
Nc1ccc(C(=O)Nc2ccc(Nc3ccc(NC(=O)c4ccc(N)cc4)cc3)cc2)cc1 [Compound 580, N,N′-(4,4′-Azanediylbis(4,1-phenylene))bis(4-aminobenzamide)]	16%
O=C(Nc1ccc(Nc2ccc(NC(=O)c3ccc4[nH]cnc4c3)cc2)cc1)c1ccc2[nH]cnc2c1 [Compound 590, N,N′-(4,4′-Azanediylbis(4,1-phenylene))bis(1H-benzimidazole-5-carboxamide)]	12%
O=C(Nc1ccc(C(=O)c2ccc(NC(=O)c3ccno3)cc2)cc1)c1ccc(N2CCOCC2)cc1 [Compound 600, 4-Morpholino-N-(4-(4-(isoxazole-5-carboxamido)benzoyl)phenyl)benzamide]	11%
O=C(Nc1ccc(C(=O)c2ccc(NC(=O)c3c[nH]nn3)cc2)cc1)c1ccc(N2CCOCC2)cc1 [Compound 610, 4-Morpholino-N-(4-(4-(1,2,3-triazole-4-carboxamido)benzoyl)phenyl)benzamide]	14%
Cc1cc(C(=O)Nc2ccc(C(=O)c3ccc(NC(=O)c4ccc(N5CCOCC5)cc4)cc3)cc2)cc(Cl)n1 [Compound 620, 4-Morpholino-N-(4-(4-(2-chloro-6-methylpyridine-4-carboxamido)benzoyl)phenyl)benzamide]	18%
O=C(Nc1ccc(N2CCOCC2)cc1)c1ccc(-c2nc3ccc(OCc4ccccc4)cc3[nH]2)cc1 [Compound 639, 4-(6-Benzyloxy-1H-benzo[d]imidazol-2-yl)-N-(4-morpholinophenyl)benzamide]	15%
O=C(Nc1ccc2cc[nH]c2c1)c1ccc(-c2nc3ccc(-c4cccnc4)cc3[nH]2)cc1 [Compound 650, N-(1H-indol-6-yl)-4-(6-(pyridin-3-yl)-1H-benzo[d]imidazol-2-yl)-benzamide]	13%
Cc1noc(COc2ccc3nc(-c4ccc(C(=O)Nc5ccc6cc[nH]c6c5)cc4)[nH]c3c2)n1 [Compound 660, 4-(6-((3-Methyl-1,2,4-oxadiazol-5-yl)methoxy)-1H-benzo[d]imidazol-2-yl)-N-(1H-indol-6-yl)benzamide]	14%
COCCOc1ccc2nc(-c3ccc(C(=O)Nc4ccc(N5CCC(O)CC5)cc4)cc3)[nH]c2c1 [Compound 670, N-(4-(4-Hydroxypiperidin-1-yl)phenyl)-4-(6-(2-methoxyethoxy)-1H-benzo[d]imidazol-2-yl)benzamide]	8%
O=C(C1CC1)N1CCN(c2ccc(-c3nc4ccc(-c5ccc(O)cc5)cc4[nH]3)cc2)CC1 [Compound 680, Cyclopropyl(4-(4-(6-(4-hydroxyphenyl)-1H-benzo[d]imidazol-2-yl)phenyl)piperazin-1-yl)methanone]	10%
O=C(Nc1ccc(C(=O)c2ccc(NC(=O)c3cccc4cc[nH]c34)cc2)cc1)c1ccc(N2CCC(O)CC2)cc1 [Compound 690, N-(4-(4-(4-(4-Hydroxypiperidin-1-yl)benzamido)benzoyl)phenyl)-1H-indolyl-7-carboxamide]	16%
Cn1nccc1C(=O)Nc1ccc(C(=O)c2ccc(NC(=O)c3ccc(N4CCC(O)CC4)cc3)cc2)cc1 [Compound 720, N-(4-(4-(4-(4-Hydroxypiperidin-1-yl)benzamido)benzoyl)phenyl)-1-methyl-1H-pyrazole-5-carboxamide]	16%
Cn1cccc1C(=O)Nc1ccc(C(=O)c2ccc(NC(=O)c3ccc(N4CCC(O)CC4)cc3Cl)cc2)cc1 [Compound 730, N-(4-(4-(2-Chloro-4-(4-hydroxypiperidin-1-yl)benzamido)benzoyl)phenyl)-1-methyl-1H-pyrrole-2-carboxamide]	18%
Cn1cccc1C(=O)Nc1ccc(N(C(=O)c2cccn2C)c2ccc(NC(=O)c3ccc(N4CCC(O)CC4)cc3)cc2)cc1 [Compound 745]	17%

Reference: patent US9144557B2, “Hematopoietic growth factor mimetic small molecule compounds and their uses” (Ligand Pharmaceuticals Inc., priority 2009, dated 2015)
